Reference: the supplement of paper PMC10307832

Columns and labels:
Test in all cases: relative viability (nuclei count vs DMSO), 5 days (fraction); higher = more cells survive
[1] = compound: CN(C/C=C/C1=CC=C(C=C1)Cl)CC2=CC=CC=C2N(CCO)S(=O)(=O)C3=CC=C(C=C3)OC [KN-93] + CCNC(=O)c1noc(-c2cc(C(C)C)c(O)cc2O)c1-c1ccc(CN2CCOCC2)cc1 [Luminespib] (partner 0.01 µM)
Procedure, shortened: (§1)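 Lung cancer cell lines were pin-tool dosed in 1536-well plates on the day after seeding, with either a lone drug or a fixed anchor-drug dose plus five library-drug doses (not always all listed) in √10 steps. Nuclei were counted on 4× images after 5 days. Relative viability is the ratio of treated-well to vehicle-well nuclei counts, with each value a median of duplicate plates.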

[2] = compound: CN(C/C=C/C1=CC=C(C=C1)Cl)CC2=CC=CC=C2N(CCO)S(=O)(=O)C3=CC=C(C=C3)OC [KN-93] + CC(=O)Nc1cccc(-n2c(=O)n(C3CC3)c(=O)c3c(Nc4ccc(I)cc4F)n(C)c(=O)c(C)c32)c1 [Trametinib] (partner 0.02 µM)
Procedure, shortened: as §1

[3] = compound: CN(C/C=C/C1=CC=C(C=C1)Cl)CC2=CC=CC=C2N(CCO)S(=O)(=O)C3=CC=C(C=C3)OC [KN-93] + NC(=O)Nc1cc(-c2cccc(F)c2)sc1C(=O)N[C@H]1CCCNC1 [AZD7762] (partner 0.2 µM)
Procedure, shortened: as §1

[4] = compound: CN(C/C=C/C1=CC=C(C=C1)Cl)CC2=CC=CC=C2N(CCO)S(=O)(=O)C3=CC=C(C=C3)OC [KN-93] + COc1cccc2cc(-c3nc([C@H]4CC[C@H](C(=O)O)CC4)n4ncnc(N)c34)[nH]c12 [OSI-027] (partner 0.5 µM)
Procedure, shortened: as §1

[5] = compound: CN(C/C=C/C1=CC=C(C=C1)Cl)CC2=CC=CC=C2N(CCO)S(=O)(=O)C3=CC=C(C=C3)OC [KN-93] + O=C(CCCCCCC(=O)Nc1ccccc1)NO [Vorinostat] (partner 1 µM)
Procedure, shortened: as §1

Cell Line	relative viability ([1]; first compound 0.08 µM)	relative viability ([1]; first compound 0.253 µM)	relative viability ([1]; first compound 2.53 µM)	relative viability ([1]; first compound 8 µM)	relative viability ([2]; first compound 0.08 µM)	relative viability ([2]; first compound 0.253 µM)	relative viability ([2]; first compound 2.53 µM)	relative viability ([2]; first compound 8 µM)	relative viability ([3]; first compound 0.08 µM)	relative viability ([3]; first compound 0.253 µM)	relative viability ([3]; first compound 2.53 µM)	relative viability ([3]; first compound 8 µM)	relative viability ([4]; first compound 0.08 µM)	relative viability ([4]; first compound 0.253 µM)	relative viability ([4]; first compound 2.53 µM)	relative viability ([4]; first compound 8 µM)	relative viability ([5]; first compound 0.08 µM)	relative viability ([5]; first compound 0.253 µM)	relative viability ([5]; first compound 2.53 µM)	relative viability ([5]; first compound 8 µM)
HOP-62	0.842	1.13	0.995	0.903	0.358	0.378	0.375	0.276	0.476	0.499	0.797	0.458	0.855	1.08	1.07	0.537	0.557	0.824	0.748	0.487
LC-2-ad	1.11	1.15	0.94	0.818	0.794	0.989	0.88	0.75	0.775	0.958	0.953	0.785	0.874	0.964	0.842	0.707	0.688	0.801	0.746	0.582
LCLC-97TM1	0.717	0.845	0.849	0.714	0.185	0.181	0.163	0.153	0.289	0.279	0.198	0.224	0.461	0.634	0.561	0.353	0.629	0.723	0.637	0.437
LCLC-103H	0.948	1.22	1.04	0.756	0.692	0.678	0.609	0.551	0.732	0.808	0.822	0.626	0.446	0.455	0.356	0.309	0.782	0.768	0.658	0.573
LK-2	0.225	0.176	0.212	0.174	0.715	0.867	0.929	0.78	0.419	0.366	0.428	0.3	0.207	0.182	0.189	0.165	0.241	0.279	0.426	0.19
LOU-NH91	0.399	0.353	0.331	0.321	0.789	0.677	0.822	0.716	0.731	0.659	0.802	0.623	0.663	0.565	0.827	0.65	0.957	0.835	0.903	0.8
LU99A	0.222	0.23	0.327	0.246	0.603	0.626	0.496	0.431	0.31	0.323	0.38	0.336	0.327	0.273	0.27	0.275	0.282	0.48	0.535	0.343
LXF-289	0.536	0.833	0.787	0.588	0.661	0.69	0.666	0.592	0.813	1.15	1.18	0.978	0.875	0.967	0.873	0.634	0.661	0.839	0.716	0.546
NCI-H23	0.227	0.185	0.199	0.212	0.331	0.397	0.432	0.326	0.286	0.214	0.235	0.106	0.566	0.544	0.662	0.344	0.596	0.626	0.543	0.258
NCI-H322M	0.921	0.793	0.954	0.752	0.478	0.575	0.488	0.442	0.549	0.53	0.555	0.51	0.535	0.577	0.539	0.411	0.917	0.836	0.826	0.782
NCI-H358	0.289	0.53	0.273	0.266	0.147	0.133	0.132	0.112	0.474	0.473	0.465	0.424	0.74	0.653	0.831	0.421	0.659	0.79	0.824	0.459
NCI-H441	0.295	0.417	0.36	0.287	–	0.422	0.401	0.177	–	1.36	1.19	1.06	0.603	0.672	0.623	0.479	–	1.06	0.864	0.498
NCI-H460	0.0407	0.0268	0.0273	0.0309	0.167	0.111	0.195	0.0953	0.563	0.556	0.731	0.328	0.863	0.825	0.603	0.223	0.308	0.618	1.08	0.485
NCI-H522	1.28	1.4	1.39	1.11	0.997	0.855	0.794	0.595	0.831	0.811	0.876	0.77	0.824	0.746	0.801	0.558	0.886	0.966	0.857	0.858
NCI-H596	0.924	1.34	1.21	0.789	0.708	0.847	0.836	0.586	1	1.08	1.11	0.845	0.769	0.726	0.755	0.252	0.654	0.528	0.656	0.324
